Data taken from ChEMBL document CHEMBL1932967, “Synthesis and biological evaluation of novel derivatives of gambogic acid as anti-hepatocellular carcinoma agents” (Bioorg Med Chem Lett, 2012).
Converted amounts (≈) assume the structure as drawn. The source made the active and inactive calls. No cut-off for these calls is given here.

Tests used:
[1] = tested on: Bel-7402; test: Induction of apoptosis in human Bel7402 cells assessed as pre-necrotic cells at 0.025 uM after 48 hrs using V-FITC and propidium iodide staining by flow cytometry (reference value: 0.7 %); type: functional
[2] = tested on: Bel-7402; test: Induction of apoptosis in human Bel7402 cells after 48 hrs using V-FITC and propidium iodide staining by flow cytometry; type: functional, cell-based
[3] = tested on: Bel-7402; test: Ratio of Gambogic acid IC50 to compound IC50 for human Bel7402 cells; type: functional
[4] = tested on: Bel-7402; test: Induction of apoptosis in human Bel7402 cells assessed as viable cells at 0.025 uM after 48 hrs using V-FITC and propidium iodide staining by flow cytometry (reference value: 95.7 %); type: functional; details: Bel-7402, 48 h, read-out: Activity
[5] = tested on: Bel-7402; test: Induction of apoptosis in human Bel7402 cells assessed as viable cells at 0.4 uM after 48 hrs using V-FITC and propidium iodide staining by flow cytometry (reference value: 95.7 %); type: functional; details: Bel-7402, 48 h, read-out: Activity
[6] = tested on: Bel-7402; test: Induction of apoptosis in human Bel7402 cells assessed as late apoptotic cells at 0.025 uM after 48 hrs using V-FITC and propidium iodide staining by flow cytometry (reference value: 2.2 %); type: functional
[7] = tested on: SMMC-7721; test: Cytotoxicity against human SMMC7721 cells after 72 hrs by MTT assay; type: functional, cell-based; details: SMMC-7721, 72 h
[8] = tested on: Bel-7402; test: Induction of apoptosis in human Bel7402 cells assessed as pre-necrotic cells at 0.1 uM after 48 hrs using V-FITC and propidium iodide staining by flow cytometry (reference value: 0.7 %); type: functional
[9] = tested on: Bel-7402; test: Cytotoxicity against human Bel7402 cells after 72 hrs by MTT assay; type: functional, cell-based; details: Bel-7402, 72 h
[10] = Cytotoxicity against human HL-7702 cells at 1.235 uM after 72 hrs by MTT assay; type: cell-based; details: l02, 72 h
[11] = tested on: Bel-7402; test: Induction of apoptosis in human Bel7402 cells assessed as late apoptotic cells at 0.1 uM after 48 hrs using V-FITC and propidium iodide staining by flow cytometry (reference value: 2.2 %); type: functional
[12] = tested on: HepG2; test: cells; details: Homo sapiens, HepG2, 72 h
Description: Cytotoxicity against human HepG2 cells after 72 hrs by MTT assay

[13] = tested on: Bel-7402; test: Induction of apoptosis in human Bel7402 cells assessed as early apoptotic cells at 0.4 uM after 48 hrs using V-FITC and propidium iodide staining by flow cytometry (reference value: 1.4 %); type: functional
[14] = tested on: Bel-7402; test: Cytotoxicity against human Bel7402 cells at 1.235 uM after 72 hrs by MTT assay; type: functional, cell-based
[15] = Cytotoxicity against human QGY7701 cells after 72 hrs by MTT assay; type: functional, cell-based; details: QGY7701, 72 h
[16] = Aqueous solubility of the compound; type: physicochemical; details: water (aqueous)
[17] = Cytotoxicity against human Bel7404 cells after 72 hrs by MTT assay; type: functional, cell-based; details: BEL-7404, 72 h
[18] = tested on: Bel-7402; test: Ratio of Taxol IC50 to compound IC50 for human Bel7402 cells; type: functional
[19] = tested on: Bel-7402; test: Induction of apoptosis in human Bel7402 cells assessed as pre-necrotic cells at 0.4 uM after 48 hrs using V-FITC and propidium iodide staining by flow cytometry (reference value: 0.7 %); type: functional
[20] = tested on: Bel-7402; test: Induction of apoptosis in human Bel7402 cells assessed as early apoptotic cells at 0.1 uM after 48 hrs using V-FITC and propidium iodide staining by flow cytometry (reference value: 1.4 %); type: functional
[21] = tested on: Bel-7402; test: Induction of apoptosis in human Bel7402 cells assessed as viable cells at 0.1 uM after 48 hrs using V-FITC and propidium iodide staining by flow cytometry (reference value: 95.7 %); type: functional; details: Bel-7402, 48 h, read-out: Activity
[22] = tested on: Bel-7402; test: Induction of apoptosis in human Bel7402 cells assessed as late apoptotic cells at 0.4 uM after 48 hrs using V-FITC and propidium iodide staining by flow cytometry (reference value: 2.2 %); type: functional
[23] = tested on: Bel-7402; test: Induction of apoptosis in human Bel7402 cells assessed as early apoptotic cells at 0.025 uM after 48 hrs using V-FITC and propidium iodide staining by flow cytometry (reference value: 1.4 %); type: functional

CC(C)=CCC[C@]1(C)C=Cc2c(O)c3c(c(CC=C(C)C)c2O1)O[C@]12C(=C[C@@H]4C[C@H]1C(C)(C)O[C@@]2(C/C=C(/C)C(=O)OCCCN1CCOCC1)C4=O)C3=O
Activity [1]: 1.4%
Activity [2]: Dose-dependent effect
Ratio IC50 [3]: 16.7
viability at 0.025 µM [4]: 87.8%
viability at 0.4 µM [5]: 49.6%
Activity [6]: 7.8%
IC50 [7]: 730 nM
Activity [8]: 0.4%
IC50 [9]: 45 nM
Activity [10]: Toxic
Activity [11]: 4.6%
IC50 [12]: 67 nM
Activity [13]: 44.9%
Activity [14]: Active
IC50 [15]: 120 nM
solubility [16]: 1210 µg/mL (≈ 1600 µM)
IC50 [17]: 1250 nM
Ratio IC50 [18]: 27.8
Activity [19]: 0.5%
Activity [20]: 22.8%
viability at 0.1 µM [21]: 72.2%
Activity [22]: 5%
Activity [23]: 3%

CC(C)=CCC[C@]1(C)C=Cc2c(O)c3c(c(CC=C(C)C)c2O1)O[C@]12C(=C[C@@H]4C[C@H]1C(C)(C)O[C@@]2(C/C=C(/C)C(=O)OCCN1CCOCC1)C4=O)C3=O
IC50 [7]: 1590 nM
IC50 [9]: 590 nM
IC50 [12]: 940 nM
IC50 [15]: 410 nM
solubility [16]: 1230 µg/mL (≈ 1660 µM)
IC50 [17]: 1990 nM

CC(C)=CCC[C@]1(C)C=Cc2c(O)c3c(c(CC=C(C)C)c2O1)O[C@]12C(=C[C@@H]4C[C@H]1C(C)(C)O[C@@]2(C/C=C(/C)C(=O)OCCCCN1CCOCC1)C4=O)C3=O
IC50 [7]: 1540 nM
IC50 [9]: 2130 nM
IC50 [12]: 1510 nM
IC50 [15]: 530 nM
solubility [16]: 1170 µg/mL (≈ 1520 µM)
IC50 [17]: 2110 nM

CC(C)=CCC[C@]1(C)C=Cc2c(O)c3c(c(CC=C(C)C)c2O1)O[C@]12C(=C[C@@H]4C[C@H]1C(C)(C)O[C@@]2(C/C=C(/C)C(=O)OCCCCN1CCNCC1)C4=O)C3=O
IC50 [7]: 23500 nM
IC50 [9]: 16700 nM
IC50 [12]: 24100 nM
IC50 [15]: 4120 nM
solubility [16]: 1320 µg/mL (≈ 1720 µM)
IC50 [17]: 28600 nM

CC(C)=CCC[C@]1(C)C=Cc2c(O)c3c(c(CC=C(C)C)c2O1)O[C@]12C(=C[C@@H]4C[C@H]1C(C)(C)O[C@@]2(C/C=C(/C)C(=O)OCCCN1CCCCC1)C4=O)C3=O
Ratio IC50 [3]: 8.7
IC50 [7]: 1060 nM
IC50 [9]: 86 nM
IC50 [12]: 150 nM
IC50 [15]: 430 nM
solubility [16]: 840 µg/mL (≈ 1110 µM)
IC50 [17]: 1420 nM
Ratio IC50 [18]: 14.5

CC(C)=CCC[C@]1(C)C=Cc2c(O)c3c(c(CC=C(C)C)c2O1)O[C@]12C(=C[C@@H]4C[C@H]1C(C)(C)O[C@@]2(C/C=C(/C)C(=O)O)C4=O)C3=O [GAMBOGIC ACID]
IC50 [7]: 1130 nM
IC50 [9]: 750 nM
IC50 [12]: 1170 nM
IC50 [15]: 240 nM
solubility [16]: 13 µg/mL (≈ 20.7 µM)
IC50 [17]: 4700 nM

CC(C)=CCC[C@]1(C)C=Cc2c(O)c3c(c(CC=C(C)C)c2O1)O[C@]12C(=C[C@@H]4C[C@H]1C(C)(C)O[C@@]2(C/C=C(/C)C(=O)OCCCCN1CCCCC1)C4=O)C3=O
IC50 [7]: 4530 nM
IC50 [9]: 3140 nM
IC50 [12]: 5590 nM
IC50 [15]: 4360 nM
solubility [16]: 780 µg/mL (≈ 1020 µM)
IC50 [17]: 6460 nM

CC(C)=CCC[C@]1(C)C=Cc2c(O)c3c(c(CC=C(C)C)c2O1)O[C@]12C(=C[C@@H]4C[C@H]1C(C)(C)O[C@@]2(C/C=C(/C)C(=O)OCCCN1CCN(CCO)CC1)C4=O)C3=O
IC50 [7]: 6610 nM
IC50 [9]: 3120 nM
IC50 [12]: 3250 nM
IC50 [15]: 960 nM
solubility [16]: 1230 µg/mL (≈ 1540 µM)
IC50 [17]: 8080 nM

CC(=O)O[C@H]1C(=O)[C@@]2(C)[C@H]([C@H](OC(=O)c3ccccc3)[C@]3(O)C[C@H](OC(=O)[C@H](O)[C@@H](NC(=O)c4ccccc4)c4ccccc4)C(C)=C1C3(C)C)[C@]1(OC(C)=O)CO[C@@H]1C[C@@H]2O [PACLITAXEL]
IC50 [7]: 880 nM
IC50 [9]: 1250 nM
IC50 [12]: 50 nM
IC50 [15]: 40 nM
IC50 [17]: 820 nM

CC(C)=CCC[C@]1(C)C=Cc2c(O)c3c(c(CC=C(C)C)c2O1)O[C@]12C(=C[C@@H]4C[C@H]1C(C)(C)O[C@@]2(C/C=C(/C)C(=O)OCCCN1CCNCC1)C4=O)C3=O
IC50 [7]: 26200 nM
IC50 [9]: 18100 nM
IC50 [12]: 19100 nM
IC50 [15]: 4380 nM
solubility [16]: 1350 µg/mL (≈ 1790 µM)
IC50 [17]: 27600 nM

CC(C)=CCC[C@]1(C)C=Cc2c(O)c3c(c(CC=C(C)C)c2O1)O[C@]12C(=C[C@@H]4C[C@H]1C(C)(C)O[C@@]2(C/C=C(/C)C(=O)OCCN1CCNCC1)C4=O)C3=O
IC50 [7]: 28400 nM
IC50 [9]: 19700 nM
IC50 [12]: 20100 nM
IC50 [15]: 5430 nM
solubility [16]: 1360 µg/mL (≈ 1840 µM)
IC50 [17]: 31100 nM

CC(C)=CCC[C@]1(C)C=Cc2c(O)c3c(c(CC=C(C)C)c2O1)O[C@]12C(=C[C@@H]4C[C@H]1C(C)(C)O[C@@]2(C/C=C(/C)C(=O)OCCN1CCN(CCO)CC1)C4=O)C3=O
IC50 [7]: 8570 nM
IC50 [9]: 3360 nM
IC50 [12]: 9900 nM
IC50 [15]: 1860 nM
solubility [16]: 1260 µg/mL (≈ 1610 µM)
IC50 [17]: 10200 nM

CC(C)=CCC[C@]1(C)C=Cc2c(O)c3c(c(CC=C(C)C)c2O1)O[C@]12C(=C[C@@H]4C[C@H]1C(C)(C)O[C@@]2(C/C=C(/C)C(=O)OCCCCN1CCN(CCO)CC1)C4=O)C3=O
IC50 [7]: 3520 nM
IC50 [9]: 1100 nM
IC50 [12]: 1160 nM
IC50 [15]: 2560 nM
solubility [16]: 1210 µg/mL (≈ 1490 µM)
IC50 [17]: 9650 nM

CC(C)=CCC[C@]1(C)C=Cc2c(O)c3c(c(CC=C(C)C)c2O1)O[C@]12C(=C[C@@H]4C[C@H]1C(C)(C)O[C@@]2(C/C=C(/C)C(=O)OCCN1CCCCC1)C4=O)C3=O
IC50 [7]: 6520 nM
IC50 [9]: 1720 nM
IC50 [12]: 3180 nM
IC50 [15]: 700 nM
solubility [16]: 870 µg/mL (≈ 1180 µM)
IC50 [17]: 7230 nM
